This passage reports IC50 and melting point results from patent publication US20090203708A1, “NOVEL SUBSTITUTED-1-H-QUINAZOLINE-2,4-DIONE DERIVATIVES, PREPARATION METHOD THEREOF AND PHARMACEUTICAL COMPOSITION CONTAINING THE SAME” (Korea Research Institute of Chemical Technology, priority 2006, published 2009).

Molecules are shown by their SMILES.

For series [1], the target named is human serotonin 5-HT6 receptor (Homo sapiens, UniProt P50406). Kind of series: [3H]LSD binding assay for cloned 5-HT6 receptors.
Chain of human serotonin 5-HT6 receptor (P50406 whole entry): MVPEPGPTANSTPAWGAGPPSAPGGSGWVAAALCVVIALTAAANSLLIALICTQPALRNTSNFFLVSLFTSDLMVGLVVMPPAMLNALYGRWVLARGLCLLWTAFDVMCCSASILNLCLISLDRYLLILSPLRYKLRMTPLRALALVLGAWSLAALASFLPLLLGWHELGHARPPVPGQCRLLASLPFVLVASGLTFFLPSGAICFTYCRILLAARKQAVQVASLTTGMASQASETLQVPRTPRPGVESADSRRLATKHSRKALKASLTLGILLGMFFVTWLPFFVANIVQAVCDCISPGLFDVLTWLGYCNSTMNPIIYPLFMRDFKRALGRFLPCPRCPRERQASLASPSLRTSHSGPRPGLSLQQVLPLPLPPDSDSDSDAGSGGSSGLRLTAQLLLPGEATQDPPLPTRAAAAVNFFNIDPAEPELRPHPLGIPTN

With `Nc1ccccc1Cn1c(=O)c2c(N3CCNCC3)cc(Cl)cc2n(Cc2ccccc2)c1=O` [Example 67, 3-(2-amino-benzyl)-1-benzyl-7-chloro-5-piperazin-1-yl-1H-quinazoline-2,4-dione], the half-inhibitory concentration (IC50) in series [1] turned out to be 3.6 nM.
`CN1CCN(c2cc(Cl)cc3c2c(=O)n(Cc2ccc(Br)cc2)c(=O)n3Cc2ccccc2)CC1` [Example 16, 1-benzyl-3-(4-bromo-benzyl)-7-chloro-5-(4-methyl-piperazin-1-yl)-1H-quinazoline-2,4-dione] had a melting point of 93 to 98 °C. Also, the IC50 in series [1] came out at 3.3 nM.
Turning to `CC(C)Cc1cccc(CCCn2c(=O)c3c(N4CCN(C)CC4)cc(Cl)cc3n(Cc3ccccc3)c2=O)c1` [Example 45, 1-benzyl-7-chloro-3-[3-(3-isobutyl-phenyl)-propyl]-5-(4-methyl-piperazin-1-yl)-1H-quinazoline-2,4-dione], the melting point was in the range of 56 to 62 °C. Moreover, in series [1], the IC50 was 10.5 nM.
For `COC(=O)c1ccc(Cn2c(=O)c3c(N4CCN(C)CC4)cc(Cl)cc3n(Cc3ccccc3)c2=O)cc1` [Example 38, 4-[1-benzyl-7-chloro-5-(4-methyl-piperazin-1-yl)-2,4-dioxo-1,4-dihydro-2H-quinazoline-3-ylmethyl]-benzoic acid methyl ester] the same measures were 90 to 94 °C and 2.7 nM.
With `CN1CCN(c2cc(Cl)cc3c2c(=O)n(Cc2ccc(I)cc2)c(=O)n3Cc2ccccc2)CC1` [Example 21, 1-benzyl-7-chloro-3-(4-iodo-benzyl)-5-(4-methyl-piperazin-1-yl)-1H-quinazoline-2,4-dione], the IC50 in series [1] worked out at 4.7 nM.
On to `CN1CCN(c2cc(Cl)cc3c2c(=O)n(Cc2ccc(O)cc2)c(=O)n3Cc2ccccc2)CC1` [Example 30, 1-benzyl-7-chloro-3-(4-hydroxy-benzyl)-5-(4-methyl-piperazin-1-yl)-1H-quinazoline-2,4-dione], for which the melting point was in the range of 138 to 140 °C. In series [1], this compound returned an IC50 of 27 nM.
Regarding `CN1CCN(c2cc(Cl)cc3c2c(=O)n(Cc2cccc(O)c2)c(=O)n3Cc2ccccc2)CC1` [Example 29, 1-benzyl-7-chloro-3-(3-hydroxy-benzyl)-5-(4-methyl-piperazin-1-yl)-1H-quinazoline-2,4-dione], the melting point lay in the range of 234 to 236 °C. This compound also displayed an IC50 in series [1] of 15 nM.
Taken in the same sequence, the figures for `CCn1c(=O)n(Cc2ccccc2)c(=O)c2c(N3CCN(C)CC3)cc(Cl)cc21` [Example 51, 3-benzyl-7-chloro-1-ethyl-5-(4-methyl-piperazin-1-yl)-1H-quinazoline-2,4-dione] were 68 to 75 °C and 729 nM.
Consider `CN1CCN(c2cc(Cl)cc3c2c(=O)n(Cc2ccc(C#N)cc2)c(=O)n3Cc2ccccc2)CC1` [Example 37, 4-[1-benzyl-7-chloro-5-(4-methyl-piperazin-1-yl)-2,4-dioxo-1,4-dihydro-2H-quinazoline-3-ylmethyl]-benzonitrile], for which the melting point was in the range of 99 to 105 °C. Further, the IC50 in series [1] stood at 27.1 nM.
As to `CCCn1c(=O)n(Cc2ccccc2)c(=O)c2c(N3CCN(C)CC3)cc(Cl)cc21` [Example 52, 3-benzyl-7-chloro-5-(4-methyl-piperazin-1-yl)-1-propyl-1H-quinazoline-2,4-dione], in series [1], the IC50 is 169 nM.
For `CN1CCN(c2cc(Cl)cc3c2c(=O)n(Cc2ccccc2N)c(=O)n3Cc2ccccc2)CC1` [Example 34, 3-(2-amino-benzyl)-1-benzyl-7-chloro-5-(4-methyl-piperazin-1-yl)-1H-quinazoline-2,4-dione], the IC50 in series [1] was determined as 2.5 nM.
Same read-out and setting: for `CCCCn1c(=O)n(Cc2ccccc2)c(=O)c2c(N3CCN(C)CC3)cc(Cl)cc21` [Example 53, 3-benzyl-1-butyl-7-chloro-5-(4-methyl-piperazin-1-yl)-1H-quinazoline-2,4-dione] the value was 30.2 nM; for `CCCCn1c(=O)c2c(N3CCN(C)CC3)cc(Cl)cc2n(Cc2ccccc2)c1=O` [Example 4, 1-benzyl-3-butyl-7-chloro-5-(4-methyl-piperazin-1-yl)-1H-quinazoline-2,4-dione], 2.8 nM.
